Experimental data: patent publication US7579356B2, “Thia-tetraazaacenaphthylene kinase inhibitors” (Janssen Pharmaceutica NV, priority 2005, dated 2009)
Values joined by “and” are separate entries in the source; they are usually repeats but may differ in a detail not shown here. Equal values may be shown once.

Columns and labels:
c-Src kinase (human) = biological target: T1, c-Src kinase (human) (Homo sapiens, UniProt P12931); assay: c-Src Kinase Assay; assay type: biochemical; conditions: for IC50: read-out: c-Src IC50 (in parentheses); for inhibition at 2 µM / c-Src % Inhibition: test concentration of 2 μM, multiple values are separate assay results; for c-Src % Inhibition: 2 µM
T1 construct: purchased Upstate Biotechnology, Lake Placid, N.Y
Method in brief: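 Inhibition was read as 33P incorporation, counted on P30 filtermats, after a 40 min, 30° C reaction. Human c-Src acted on 100 μM Cdc2 peptide with 5 μM ATP (final), pH 7.0 MOPS/MgCl2. Values are percent inhibition at 2 μM compound, or IC50 where determined.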

HCT-116 colon carcinoma = assay: Cell Proliferation Inhibition Assay, HCT-116 (14C-thymidine); assay type: cell-based; conditions: Homo sapiens, HCT-116 cell proliferation
Excerpt: Cell Proliferation Inhibition Assay
The ability of a test compound to inhibit unregulated cell proliferation may be determined by measuring incorporation of ^14C-labelled thymidine into newly synthesized DNA within cell lines derived from carcinomas originating from several tissues. Accordingly, the effect of a test compound on proliferation of cells with a variety of phenotypes may be determined.
Carcinoma cell lines used include the HeLa cervical adenocarcinoma from the American Type Culture Collection (ATCC Cat. #CCL2), A375 malignant melanoma (ATCC Cat. #CRL-1619), HCT-116 colon carcinoma (ATCC Cat. #CCL-247), SKBR3 breast carcinoma (ATCC Cat. #HTB-30) and BT474 breast carcinoma (ATCC Cat. #HTB-20).
The carcinoma cells were trypsinized and counted. The cells (3000-8000 count) were added to each well of a 96-well CytoStar tissue culture treated scintillating microplate (Amersham #RPNQ0160) in complete medium (100 μL) and the plate was then incubated in complete medium for 24 hrs at 37° C. in an inert atmosphere containing 5% CO2.
Test compound (1 μL) in 100% DMSO was added to the plate test-wells with DMSO only added to control-wells. The plate was incubated in complete medium for a second 24 hr period at 37° C. in an atmosphere containing 5% CO2.
An aliquot of a solution of Methyl ^14C-thymidine (56 mC/mmol) (NEN #NEC568 or AMersham #CFA532) and complete medium (20 uL to provide 0.2 μCl/well) was then added to each well and the plate was incubated for a third 24 hr period at 37° C. in an atmosphere containing 5% CO2.
The plate contents were then discarded, the plate washed twice with PBS (200 μL) and then PBS (200 μL) was added to each well. The plate was sealed and the degree of methyl ^14C-thymidine incorporation was quantified on a Packard Top Count.
Cell proliferation of the Hela cell line was measured using the ATP-Lite method as described in the ATP Lite Kit (Perkin-Elmer Kit Number 6106941) or the C^14 method as described above. Cell proliferation of the other cell lines was measured using the C^14 method.

Lyn kinase (human) = biological target: T2, Lyn kinase (human) (Homo sapiens, UniProt P07948); assay: Lyn Kinase Assay; assay type: biochemical; conditions: for inhibition at 2 µM / % Inhibition (Lyn): test concentration of 2 μM; for % Inhibition (Lyn): 2 µM
T2 construct: purchased Upstate Biotechnology, Lake Placid, N.Y
Method in brief: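 Radiometric filter-binding assay with recombinant human Lyn, poly(Glu,Tyr) substrate (0.1 mg/mL final), 5 μM ATP plus γ-33P-ATP in MOPS pH 7.5/Mg acetate buffer; 40 min at 30 °C, stopped with phosphoric acid, counted by scintillation. Reported as percent inhibition at 2 μM, with IC50 (μM) where determined.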

T2 sequence (P07948 whole entry): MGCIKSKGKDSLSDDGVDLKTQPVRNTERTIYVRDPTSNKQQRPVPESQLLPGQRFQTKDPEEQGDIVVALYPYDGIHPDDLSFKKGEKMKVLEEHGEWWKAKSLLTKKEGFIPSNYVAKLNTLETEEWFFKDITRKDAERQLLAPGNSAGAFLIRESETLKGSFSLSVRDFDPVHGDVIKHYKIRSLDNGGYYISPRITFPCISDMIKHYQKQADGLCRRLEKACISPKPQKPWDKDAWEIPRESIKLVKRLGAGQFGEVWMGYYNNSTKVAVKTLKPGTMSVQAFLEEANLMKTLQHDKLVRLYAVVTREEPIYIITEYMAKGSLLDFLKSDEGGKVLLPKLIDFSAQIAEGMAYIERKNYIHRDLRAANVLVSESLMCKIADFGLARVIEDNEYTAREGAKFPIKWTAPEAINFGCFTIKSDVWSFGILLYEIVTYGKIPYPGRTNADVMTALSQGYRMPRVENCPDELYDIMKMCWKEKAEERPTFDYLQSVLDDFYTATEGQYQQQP
T1 sequence (P12931 whole entry): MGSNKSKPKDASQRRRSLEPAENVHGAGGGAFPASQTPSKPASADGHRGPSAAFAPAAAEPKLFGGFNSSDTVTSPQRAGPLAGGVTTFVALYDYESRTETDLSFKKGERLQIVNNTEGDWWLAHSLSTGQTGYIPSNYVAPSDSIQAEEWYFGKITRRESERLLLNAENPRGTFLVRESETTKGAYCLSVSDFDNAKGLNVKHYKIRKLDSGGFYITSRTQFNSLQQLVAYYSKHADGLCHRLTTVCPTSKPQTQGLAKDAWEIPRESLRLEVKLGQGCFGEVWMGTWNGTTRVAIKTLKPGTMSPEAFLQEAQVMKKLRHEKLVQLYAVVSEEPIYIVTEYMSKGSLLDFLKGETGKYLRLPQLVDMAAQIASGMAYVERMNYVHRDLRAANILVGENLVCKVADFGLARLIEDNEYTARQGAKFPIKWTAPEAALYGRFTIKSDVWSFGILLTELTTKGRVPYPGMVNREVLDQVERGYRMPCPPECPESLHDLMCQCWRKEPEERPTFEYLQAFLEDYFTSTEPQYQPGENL

SMILES	IC50 (c-Src kinase (human))	IC50 (HCT-116 colon carcinoma)	inhibition at 2 µM (c-Src kinase (human))	inhibition at 2 µM (Lyn kinase (human))	% Inhibition (Lyn) (Lyn kinase (human))	c-Src % Inhibition (c-Src kinase (human))	IC50 (Lyn kinase (human); value in parentheses)
O=C(Nc1ccc(CN2CCOCC2)cc1)c1sc2ncnc3c2c1NC(=O)N3c1cccc(Br)c1 [Cpd 36, 5-(3-bromo-phenyl)-4-oxo-4,5-dihydro-3H-1-thia-3,5,6,8-tetraaza-acenaphthylene-2-carboxylic acid (4-morpholin-4-ylmethyl-phenyl)-amide]	> 20 µM	67.9 µM	–	–	–	–	–
COc1cc(N2C(=O)Nc3c(C(=O)Nc4ccc(CN5CCCC5)cc4)sc4ncnc2c34)c(Cl)cc1Cl [Cpd 43, 5-(2,4-dichloro-5-methoxy-phenyl)-4-oxo-4,5-dihydro-3H-1-thia-3,5,6,8-tetraaza-acenaphthylene-2-carboxylic acid (4-pyrrolidin-1-ylmethyl-phenyl)-amide]	4.15 µM	–	53%	71%	–	–	–
COc1ccc(Cl)c(N2C(=O)Nc3c(C(=O)Nc4ccc(OC)c(OC)c4)sc4ncnc2c34)c1 [Cpd 49, 5-(2-chloro-5-methoxy-phenyl)-4-oxo-4,5-dihydro-3H-1-thia-3,5,6,8-tetraaza-acenaphthylene-2-carboxylic acid (3,4-dimethoxy-phenyl)-amide]	> 200 µM	–	23%	50%	–	–	–
COc1ccc(Cl)c(N2C(=O)Nc3c(C(=O)Nc4ccc(OCCN5CCOCC5)c(OC)c4)sc4ncnc2c34)c1 [Cpd 50, 5-(2-chloro-5-methoxy-phenyl)-4-oxo-4,5-dihydro-3H-1-thia-3,5,6,8-tetraaza-acenaphthylene-2-carboxylic acid [3-methoxy-4-(2-morpholin-4-yl-ethoxy)-phenyl]-amide]	8.09 µM	–	20%	60%	–	–	–
COc1ccc(Cl)c(N2C(=O)Nc3c(C(=O)Nc4ccc(CN5CCOCC5)cc4)sc4ncnc2c34)c1 [Cpd 51, 5-(2-chloro-5-methoxy-phenyl)-4-oxo-4,5-dihydro-3H-1-thia-3,5,6,8-tetraaza-acenaphthylene-2-carboxylic acid (4-morpholin-4-ylmethyl-phenyl)-amide]	6.58 µM	–	33%	70%	–	–	–
COC(=O)c1sc2ncnc3c2c1NC(=O)N3c1c(Cl)ccc2c1OCO2 [Cpd 54, 5-(5-chloro-benzo[1,3]dioxol-4-yl)-4-oxo-4,5-dihydro-3H-1-thia-3,5,6,8-tetraaza-acenaphthylene-2-carboxylic acid methyl ester]	1.49 µM	–	42%	52%	–	–	–
COc1cc(N2C(=O)Nc3c(C(=O)Nc4ccc(CN5CCN(C)CC5)cc4)sc4ncnc2c34)c(Cl)cc1Cl [Cpd 60]	7.94 µM	–	38%	50%	–	–	–
O=C(Nc1ccc(CN2CCOCC2)cc1)c1sc2ncnc3c2c1NC(=O)N3c1c(Cl)ccc2c1OCO2 [Cpd 62, 5-(5-chloro-benzo[1,3]dioxol-4-yl)-4-oxo-4,5-dihydro-3H-1-thia-3,5,6,8-tetraaza-acenaphthylene-2-carboxylic acid (4-morpholin-4-ylmethyl-phenyl)-amide]	0.075 µM	–	83%	92%	–	–	–
O=C(Nc1ccc(NCCCN2CCOCC2)nc1)c1sc2ncnc3c2c1NC(=O)N3c1cccc(Br)c1 [Cpd 64, 5-(3-bromo-phenyl)-4-oxo-4,5-dihydro-3H-1-thia-3,5,6,8-tetraaza-acenaphthylene-2-carboxylic acid [6-(3-morpholin-4-yl-propylamino)-pyridin-3-yl]-amide]	–	–	-14%	26%	–	–	–
O=C(O)c1sc2ncnc3c2c1NC(=O)N3c1ccc2c(ccn2Cc2cccc(F)c2)c1 [Cpd 77, 5-[1-(3-fluoro-benzyl)-1H-indol-5-yl]-4-oxo-4,5-dihydro-3H-1-thia-3,5,6,8-tetraaza-acenaphthylene-2-carboxylic acid]	> 200 µM	100 µM	44%	–	–	–	–
O=C(Nc1ccc(CN2CCCCC2)cc1)c1sc2ncnc3c2c1NC(=O)N3c1ccc(OCc2ccccn2)c(Cl)c1 [Cpd 89, 5-[3-chloro-4-(pyridin-2-ylmethoxy)-phenyl]-4-oxo-4,5-dihydro-3H-1-thia-3,5,6,8-tetraaza-acenaphthylene-2-carboxylic acid (4-piperidin-1-ylmethyl-phenyl)-amide]	–	–	44%	–	4% and 0.5%	–	–
CN1CCN(Cc2ccc(NC(=O)c3sc4ncnc5c4c3NC(=O)N5c3ccc(OCc4ccccn4)c(Cl)c3)cc2)CC1 [Cpd 90, 5-[3-chloro-4-(pyridin-2-ylmethoxy)-phenyl]-4-oxo-4,5-dihydro-3H-1-thia-3,5,6,8-tetraaza-acenaphthylene-2-carboxylic acid [4-(4-methyl-piperazin-1-ylmethyl)-phenyl]-amide]	–	–	8%	-8.1%	–	4%	–
O=C(Nc1ccc(CN2CCCCC2)cc1)c1sc2ncnc3c2c1NC(=O)N3c1ccc(Oc2ccccc2)cc1 [Cpd 96, 4-oxo-5-(4-phenoxy-phenyl)-4,5-dihydro-3H-1-thia-3,5,6,8-tetraaza-acenaphthylene-2-carboxylic acid (4-piperidin-1-ylmethyl-phenyl)-amide]	> 200 µM	–	–	27%	16.8%	–	–
O=C(Nc1ccc(CN2CCOCC2)cc1)c1sc2ncnc3c2c1NC(=O)N3c1ccc(Oc2ccccc2)cc1 [Cpd 97, 4-oxo-5-(4-phenoxy-phenyl)-4,5-dihydro-3H-1-thia-3,5,6,8-tetraaza-acenaphthylene-2-carboxylic acid (4-morpholin-4-ylmethyl-phenyl)-amide]	~2 µM	–	–	36.5%	26.6%	–	–
CN1CCN(Cc2ccc(NC(=O)c3sc4ncnc5c4c3NC(=O)N5c3ccc(Oc4ccccc4)cc3)cc2)CC1 [Cpd 98, 4-oxo-5-(4-phenoxy-phenyl)-4,5-dihydro-3H-1-thia-3,5,6,8-tetraaza-acenaphthylene-2-carboxylic acid [4-(4-methyl-piperazin-1-ylmethyl)-phenyl]-amide]	0.592 µM	–	–	30.7%	50.0%	63% and 41%	–
COc1cc(NC(=O)c2sc3ncnc4c3c2NC(=O)N4c2ccc(Oc3ccccc3)cc2)ccc1OCCN1CCCCC1 [Cpd 100, 4-oxo-5-(4-phenoxy-phenyl)-4,5-dihydro-3H-1-thia-3,5,6,8-tetraaza-acenaphthylene-2-carboxylic acid [3-methoxy-4-(2-piperidin-1-yl-ethoxy)-phenyl]-amide]	> 200 µM	–	–	40%	50%	–	–
O=C(Nc1ccc(CN2CCOCC2)cc1)c1sc2ncnc3c2c1NC(=O)N3c1c(Cl)cccc1Cl [Cpd 104, 5-(2,6-dichloro-phenyl)-4-oxo-4,5-dihydro-3H-1-thia-3,5,6,8-tetraaza-acenaphthylene-2-carboxylic acid (4-morpholin-4-ylmethyl-phenyl)-amide]	1.84 µM	–	55%	70%	69%	60%	–
O=C(Nc1ccc(CN2CCOCC2)cc1)c1sc2ncnc3c2c1NC(=O)N3c1ccc(Oc2ccccc2)c(F)c1 [Cpd 113, 5-(3-fluoro-4-phenoxy-phenyl)-4-oxo-4,5-dihydro-3H-1-thia-3,5,6,8-tetraaza-acenaphthylene-2-carboxylic acid (4-morpholin-4-ylmethyl-phenyl)-amide]	–	–	68%	60%	55%	54%	–
O=C(Nc1ccc(CN2CCOCC2)cc1)c1sc2ncnc3c2c1NC(=O)N3c1ccc(N2CCOCC2)cc1 [Cpd 123, 5-(4-morpholin-4-yl-phenyl)-4-oxo-4,5-dihydro-3H-1-thia-3,5,6,8-tetraaza-acenaphthylene-2-carboxylic acid (4-morpholin-4-ylmethyl-phenyl)-amide]	0.545 µM	–	77%	55%	–	–	1.44 µM
